According to the supplement of paper PMC11451515:

Experiments:
Conditions in all cases: 48 h
SEM cells [1] = assay: AUC of viability dose-response curve (% viability x log10 dose units); higher = less sensitive
Method in brief: (§1)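 Leukemia cells adapted to each medium were seeded in 1536-well plates (500 or 1000 cells/well) and given library compounds in DMSO for 48 h at 37°C. The 11 threefold doses spanned 47 μM to 0.79 nM, and CellTiter-Glo One luminescence was normalised per plate to DMSO and cell-free wells before four-parameter log-logistic fitting on log10 dose. Area under the curve was integrated with the trapezoidal rule, scaling curves above full viability and removing curves that failed quality control.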

P12-Ichikawa [2] = assay: as above
Method in brief: as §1

NOMO1 [3] = assay: as above
Method in brief: as §1

P12-Ichikawa [4] = assay: cell viability relative to DMSO control; higher = less cytotoxic
Method in brief: (§2)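 Viability is expressed as a percentage of DMSO wells within each plate, and cell-free wells serve as background. Seeding densities in the 1536-well plates (5 μl) were 500 cells/well for NOMO1 or SEM leukemia cells and 1000 cells/well for P12-Ichikawa. Each line was adapted for at least four passages in each medium. Library compounds in DMSO were pin-dosed at 47 μM to 0.79 nM (11 points, threefold), and CellTiter-Glo One luminescence was read after 48 h at 37°C.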

NOMO1 [5] = assay: as above
Method in brief: as §2

SEM cells [6] = assay: as above
Method in brief: as §2

C[C@H]([C@H]1C\C(=C(CO)/C(=O)O1)C)[C@H]2CC[C@H]3[C@@H]4C[C@H]5O[C@]56[C@@H](O)\C=C/C(=O)[C@]6(C)[C@H]4CC[C@]23C
AUC of viability dose-response curve
Conditions | NOMO1 [3] | P12-Ichikawa [2] | SEM cells [1]
HPLM + 10% dialyzed FBS | 271 | 263 | 259
RPMI 5 mM glucose + 10% FBS | 283 | 258 | 253
RPMI 5 mM glucose + 10% dialyzed FBS | 286 | 261 | 260

Conditions | cell viability [%]
NOMO1 [5], RPMI 5 mM glucose + 10% FBS, 0.000781 µM | 133
NOMO1 [5], RPMI 5 mM glucose + 10% FBS, 0.00234 µM | 123
NOMO1 [5], RPMI 5 mM glucose + 10% FBS, 0.00702 µM | 122
NOMO1 [5], RPMI 5 mM glucose + 10% FBS, 0.0211 µM | 128
NOMO1 [5], RPMI 5 mM glucose + 10% FBS, 0.0632 µM | 119
NOMO1 [5], RPMI 5 mM glucose + 10% FBS, 0.19 µM | 115
NOMO1 [5], RPMI 5 mM glucose + 10% FBS, 0.569 µM | 28.6
NOMO1 [5], RPMI 5 mM glucose + 10% FBS, 1.71 µM | 20.5
NOMO1 [5], RPMI 5 mM glucose + 10% FBS, 5.12 µM | 9.85
NOMO1 [5], RPMI 5 mM glucose + 10% FBS, 15.4 µM | 6.35
NOMO1 [5], RPMI 5 mM glucose + 10% FBS, 46.1 µM | 3.75
P12-Ichikawa [4], HPLM + 10% dialyzed FBS, 0.000781 µM | 126
P12-Ichikawa [4], HPLM + 10% dialyzed FBS, 0.00234 µM | 124
P12-Ichikawa [4], HPLM + 10% dialyzed FBS, 0.00702 µM | 123
P12-Ichikawa [4], HPLM + 10% dialyzed FBS, 0.0211 µM | 129
P12-Ichikawa [4], HPLM + 10% dialyzed FBS, 0.0632 µM | 121
P12-Ichikawa [4], HPLM + 10% dialyzed FBS, 0.19 µM | 100
P12-Ichikawa [4], HPLM + 10% dialyzed FBS, 0.569 µM | 11.3
P12-Ichikawa [4], HPLM + 10% dialyzed FBS, 1.71 µM | 7.84
P12-Ichikawa [4], HPLM + 10% dialyzed FBS, 5.12 µM | 5.43
P12-Ichikawa [4], HPLM + 10% dialyzed FBS, 15.4 µM | 3.44
P12-Ichikawa [4], HPLM + 10% dialyzed FBS, 46.1 µM | 1.95

C[C@H]1CCC/C=C/C2C[C@H](O)C[C@H]2[C@H](O)/C=C/C(=O)O1 (some centres not stated)
cell viability [%]
Conditions | NOMO1 [5] | P12-Ichikawa [4] | SEM cells [6]
HPLM + 10% dialyzed FBS, 0.000781 µM | 4.93 | 90.4 | 15.7
HPLM + 10% dialyzed FBS, 0.00234 µM | 15.8 | 102 | 31.7
HPLM + 10% dialyzed FBS, 0.00702 µM | 26.7 | 94.8 | 17.9
HPLM + 10% dialyzed FBS, 0.0211 µM | 7.07 | 70.4 | 5.79
HPLM + 10% dialyzed FBS, 0.0632 µM | 5.05 | 32.8 | 5.21
HPLM + 10% dialyzed FBS, 0.19 µM | 5.57 | 18.7 | 5.3
HPLM + 10% dialyzed FBS, 0.569 µM | 5.16 | 9.39 | 5
HPLM + 10% dialyzed FBS, 1.71 µM | 4.43 | 4.66 | 4.73
HPLM + 10% dialyzed FBS, 5.12 µM | 3.51 | 2.87 | 2.72
HPLM + 10% dialyzed FBS, 15.4 µM | 3.39 | 2.17 | 2.09
HPLM + 10% dialyzed FBS, 46.1 µM | 2.94 | 2.02 | 2.38
RPMI 5 mM glucose + 10% FBS, 0.000781 µM | 5.4 | 74 | 11.4
RPMI 5 mM glucose + 10% FBS, 0.00234 µM | 7 | 75.3 | 54.4
RPMI 5 mM glucose + 10% FBS, 0.00702 µM | 5.78 | 81.5 | 44.6
RPMI 5 mM glucose + 10% FBS, 0.0211 µM | 5.27 | 60.1 | 9.33
RPMI 5 mM glucose + 10% FBS, 0.0632 µM | 5.07 | 10.9 | 5.67
RPMI 5 mM glucose + 10% FBS, 0.19 µM | 4.51 | 9.73 | 6.09
RPMI 5 mM glucose + 10% FBS, 0.569 µM | 4.27 | 6.57 | 5.62
RPMI 5 mM glucose + 10% FBS, 1.71 µM | 3.98 | 4.48 | 4.83
RPMI 5 mM glucose + 10% FBS, 5.12 µM | 1.66 | 1.69 | 3.32
RPMI 5 mM glucose + 10% FBS, 15.4 µM | 1.88 | 1.14 | 3.06
RPMI 5 mM glucose + 10% FBS, 46.1 µM | 3.46 | 1.83 | 2.16
RPMI 5 mM glucose + 10% dialyzed FBS, 0.000781 µM | 79.5 | 104 | 4.97
RPMI 5 mM glucose + 10% dialyzed FBS, 0.00234 µM | 6.02 | 81.9 | 29.4
RPMI 5 mM glucose + 10% dialyzed FBS, 0.00702 µM | 10 | 86.1 | 23.6
RPMI 5 mM glucose + 10% dialyzed FBS, 0.0211 µM | 5.74 | 62.7 | 5.2
RPMI 5 mM glucose + 10% dialyzed FBS, 0.0632 µM | 4.22 | 12.7 | 4.1
RPMI 5 mM glucose + 10% dialyzed FBS, 0.19 µM | 4.83 | 12.8 | 3.92
RPMI 5 mM glucose + 10% dialyzed FBS, 0.569 µM | 4.29 | 6.09 | 3.96
RPMI 5 mM glucose + 10% dialyzed FBS, 1.71 µM | 3.43 | 4.16 | 3.5
RPMI 5 mM glucose + 10% dialyzed FBS, 5.12 µM | 2.6 | 3.23 | 2
RPMI 5 mM glucose + 10% dialyzed FBS, 15.4 µM | 2.61 | 2.71 | 1.85
RPMI 5 mM glucose + 10% dialyzed FBS, 46.1 µM | 2.61 | 1.83 | 1.45

O=C1[O][Pt]2([NH]C3CCCCC3[NH]2)[O]C1=O (configuration not stated)
NOMO1 [3]
Conditions | AUC of viability dose-response curve
HPLM + 10% dialyzed FBS | 400
RPMI 5 mM glucose + 10% FBS | 403
RPMI 5 mM glucose + 10% dialyzed FBS | 419

cell viability [%]
Conditions | NOMO1 [5] | P12-Ichikawa [4] | SEM cells [6]
HPLM + 10% dialyzed FBS, 0.000781 µM | 116 | 19.4 | 95.9
HPLM + 10% dialyzed FBS, 0.00234 µM | 118 | 112 | 110
HPLM + 10% dialyzed FBS, 0.00702 µM | 119 | 115 | 102
HPLM + 10% dialyzed FBS, 0.0211 µM | 107 | 111 | 107
HPLM + 10% dialyzed FBS, 0.0632 µM | 141 | 118 | 105
HPLM + 10% dialyzed FBS, 0.19 µM | 118 | 113 | 108
HPLM + 10% dialyzed FBS, 0.569 µM | 131 | 118 | 101
HPLM + 10% dialyzed FBS, 1.71 µM | 120 | 114 | 91.5
HPLM + 10% dialyzed FBS, 5.12 µM | 90.2 | 62.4 | 27
HPLM + 10% dialyzed FBS, 15.4 µM | 14.7 | 2.95 | 3.68
HPLM + 10% dialyzed FBS, 46.1 µM | 7.1 | 3.39 | 4.13
RPMI 5 mM glucose + 10% FBS, 0.000781 µM | 108 | 106 | 74
RPMI 5 mM glucose + 10% FBS, 0.00234 µM | 103 | 109 | 77.5
RPMI 5 mM glucose + 10% FBS, 0.00702 µM | 120 | 106 | 69
RPMI 5 mM glucose + 10% FBS, 0.0211 µM | 119 | 118 | 66.6
RPMI 5 mM glucose + 10% FBS, 0.0632 µM | 110 | 115 | 83.8
RPMI 5 mM glucose + 10% FBS, 0.19 µM | 135 | 123 | 84
RPMI 5 mM glucose + 10% FBS, 0.569 µM | 115 | 128 | 81.7
RPMI 5 mM glucose + 10% FBS, 1.71 µM | 107 | 117 | 60.3
RPMI 5 mM glucose + 10% FBS, 5.12 µM | 90.4 | 70 | 15
RPMI 5 mM glucose + 10% FBS, 15.4 µM | 17.6 | 3.56 | 2.66
RPMI 5 mM glucose + 10% FBS, 46.1 µM | 5.82 | 2.67 | 2.68
RPMI 5 mM glucose + 10% dialyzed FBS, 0.000781 µM | 107 | 111 | 84.7
RPMI 5 mM glucose + 10% dialyzed FBS, 0.00234 µM | 108 | 115 | 97.5
RPMI 5 mM glucose + 10% dialyzed FBS, 0.00702 µM | 100 | 121 | 104
RPMI 5 mM glucose + 10% dialyzed FBS, 0.0211 µM | 110 | 119 | 114
RPMI 5 mM glucose + 10% dialyzed FBS, 0.0632 µM | 109 | 119 | 108
RPMI 5 mM glucose + 10% dialyzed FBS, 0.19 µM | 122 | 113 | 102
RPMI 5 mM glucose + 10% dialyzed FBS, 0.569 µM | 108 | 114 | 118
RPMI 5 mM glucose + 10% dialyzed FBS, 1.71 µM | 112 | 113 | 91.3
RPMI 5 mM glucose + 10% dialyzed FBS, 5.12 µM | 98.4 | 79 | 42.6
RPMI 5 mM glucose + 10% dialyzed FBS, 15.4 µM | 38.3 | 7.33 | 3.5
RPMI 5 mM glucose + 10% dialyzed FBS, 46.1 µM | 9.17 | 2.85 | 3.34
